Measurements as given in the NIST ThermoML archive (doi:10.1021/je900691n).
± gives the expanded uncertainty stated by the source.

Experiment: xn = mol fraction of the nth substance listed
Conditions: Liquid, Pycnometric method

COC(=O)OC [dimethyl carbonate] + O=C=O
Conditions	mass density [kg/m3]
308.15 K, 14760 kPa, x1 = 0.086	944 ± 4
308.15 K, 15030 kPa, x1 = 0.1484	984 ± 4
308.15 K, 15060 kPa, x1 = 0.068	946 ± 4
308.15 K, 15240 kPa, x1 = 0.0481	911 ± 4
308.15 K, 15490 kPa, x1 = 0.068	949 ± 4
308.15 K, 15690 kPa, x1 = 0.1484	987 ± 4
308.15 K, 16010 kPa, x1 = 0.068	953 ± 4
308.15 K, 16350 kPa, x1 = 0.1484	990 ± 4
313.15 K, 6780 kPa, x1 = 0.1484	905 ± 4
313.15 K, 7020 kPa, x1 = 0.118	880 ± 4
313.15 K, 7280 kPa, x1 = 0.1484	909 ± 4
313.15 K, 7340 kPa, x1 = 0.086	834 ± 4
313.15 K, 7500 kPa, x1 = 0.118	886 ± 4
313.15 K, 7780 kPa, x1 = 0.1484	914 ± 4
313.15 K, 7850 kPa, x1 = 0.0481	740 ± 4
313.15 K, 8050 kPa, x1 = 0.0481	748 ± 4
313.15 K, 8050 kPa, x1 = 0.118	893 ± 4
313.15 K, 8220 kPa, x1 = 0.0242	606 ± 4
313.15 K, 8250 kPa, x1 = 0.0242	613 ± 4
313.15 K, 8260 kPa, x1 = 0.0481	757 ± 4
313.15 K, 8290 kPa, x1 = 0.0242	622 ± 4
313.15 K, 8290 kPa, x1 = 0.1484	918 ± 4
313.15 K, 8350 kPa, x1 = 0.086	852 ± 4
313.15 K, 8380 kPa, x1 = 0.0242	636 ± 4
313.15 K, 8490 kPa, x1 = 0.0242	650 ± 4
313.15 K, 8510 kPa, x1 = 0.0481	767 ± 4
313.15 K, 8590 kPa, x1 = 0.0242	665 ± 4
313.15 K, 8760 kPa, x1 = 0.0242	681 ± 4
313.15 K, 8760 kPa, x1 = 0.1484	922 ± 4
313.15 K, 8790 kPa, x1 = 0.086	859 ± 4
313.15 K, 8920 kPa, x1 = 0.0242	692 ± 4
313.15 K, 8930 kPa, x1 = 0.0481	780 ± 4
313.15 K, 9000 kPa, x1 = 0.118	903 ± 4
313.15 K, 9110 kPa, x1 = 0.0242	705 ± 4
313.15 K, 9250 kPa, x1 = 0.086	865 ± 4
313.15 K, 9250 kPa, x1 = 0.1484	926 ± 4
313.15 K, 9420 kPa, x1 = 0.0242	721 ± 4
313.15 K, 9480 kPa, x1 = 0.0481	795 ± 4
313.15 K, 9630 kPa, x1 = 0.0242	731 ± 4
313.15 K, 9650 kPa, x1 = 0.118	910 ± 4
313.15 K, 9720 kPa, x1 = 0.086	871 ± 4
313.15 K, 9770 kPa, x1 = 0.1484	930 ± 4
313.15 K, 9960 kPa, x1 = 0.0242	744 ± 4
313.15 K, 9960 kPa, x1 = 0.0481	807 ± 4
313.15 K, 10130 kPa, x1 = 0.086	876 ± 4
313.15 K, 10240 kPa, x1 = 0.1484	934 ± 4
313.15 K, 10280 kPa, x1 = 0.0242	755 ± 4
313.15 K, 10300 kPa, x1 = 0.118	916 ± 4
313.15 K, 10420 kPa, x1 = 0.0481	816 ± 4
313.15 K, 10580 kPa, x1 = 0.0242	765 ± 4
313.15 K, 10740 kPa, x1 = 0.1484	937 ± 4
313.15 K, 10870 kPa, x1 = 0.086	885 ± 4
313.15 K, 10980 kPa, x1 = 0.0242	775 ± 4
313.15 K, 11010 kPa, x1 = 0.0481	827 ± 4
313.15 K, 11010 kPa, x1 = 0.118	922 ± 4
313.15 K, 11120 kPa, x1 = 0.086	888 ± 4
313.15 K, 11280 kPa, x1 = 0.1484	941 ± 4
313.15 K, 11400 kPa, x1 = 0.0242	785 ± 4
313.15 K, 11430 kPa, x1 = 0.0481	834 ± 4
313.15 K, 11550 kPa, x1 = 0.118	927 ± 4
313.15 K, 11710 kPa, x1 = 0.086	893 ± 4
313.15 K, 11740 kPa, x1 = 0.0242	793 ± 4
313.15 K, 11770 kPa, x1 = 0.1484	944 ± 4
313.15 K, 11950 kPa, x1 = 0.0481	842 ± 4
313.15 K, 12030 kPa, x1 = 0.118	930 ± 4
313.15 K, 12080 kPa, x1 = 0.0242	801 ± 4
313.15 K, 12130 kPa, x1 = 0.086	898 ± 4
313.15 K, 12330 kPa, x1 = 0.1484	948 ± 4
313.15 K, 12450 kPa, x1 = 0.0481	849 ± 4
313.15 K, 12520 kPa, x1 = 0.0242	809 ± 4
313.15 K, 12700 kPa, x1 = 0.086	903 ± 4
313.15 K, 12700 kPa, x1 = 0.118	935 ± 4
